# BindingDB's records for doi:10.1021/cb800306y (Stony Brook University, 2009)
# Biological target: T1, Enoyl-[acyl-carrier-protein] reductase [NADH] (Francisella tularensis subsp. novicida (strain U112), UniProt A0Q794)
# T1 sequence (A0Q794 whole entry): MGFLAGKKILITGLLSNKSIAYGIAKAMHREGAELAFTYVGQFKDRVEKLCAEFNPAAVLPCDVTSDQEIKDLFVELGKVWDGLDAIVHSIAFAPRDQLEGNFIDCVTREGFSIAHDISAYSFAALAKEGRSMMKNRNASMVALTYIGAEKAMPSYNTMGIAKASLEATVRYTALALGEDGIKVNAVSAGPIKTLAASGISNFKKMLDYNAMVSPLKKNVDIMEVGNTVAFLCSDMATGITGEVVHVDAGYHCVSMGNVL
# Assay: Enzyme Inhibition Assay
# Conditions: pH 8; 25 °C
# Excerpt: Inhibition constant binding to E-NADH
row,Compound,Ki
1,CCCCCCCCc1ccc(Oc2ccccc2)c(O)c1 [5-Octyl-2-phenoxy-phenol],192 nM
2,CCCc1ccc(Oc2ccccc2)c(O)c1 [PT02],696 nM
3,CCc1ccc(Oc2ccccc2)c(O)c1 [PT01],311 nM
4,Oc1cc(Cl)ccc1Oc1ccc(Cl)cc1Cl,5000 nM
5,CCCCCCc1ccc(Oc2ccccc2)c(O)c1 [5-hexyl-2-phenoxyphenol],331 nM
6,Oc1cc(Cl)ccc1Oc1ccccc1 [PT52],308 nM
7,Cc1ccc(Oc2ccccc2)c(O)c1 [PT53],247 nM

# Biological target: T1, Enoyl-[acyl-carrier-protein] reductase [NADH]
# Assay: Enzyme Inhibition Assay
# Conditions: pH 8; 25 °C
# Remark: another data set of the same source
# Excerpt: Inhibition constant binding to E-NAD+
row,Compound,Ki
1,CCCCCCCCc1ccc(Oc2ccccc2)c(O)c1 [5-Octyl-2-phenoxy-phenol],23.6 nM
2,Oc1cc(F)ccc1Oc1ccccc1 [PT55],289 nM
3,CCCc1ccc(Oc2ccccc2)c(O)c1 [PT02],0.44 nM
4,CCc1ccc(Oc2ccccc2)c(O)c1 [PT01],2.1 nM
5,Oc1cc(Cl)ccc1Oc1ccc(Cl)cc1Cl,0.051 nM
6,CCCCCCc1ccc(Oc2ccccc2)c(O)c1 [5-hexyl-2-phenoxyphenol],2.7 nM
7,Oc1cc(Cl)ccc1Oc1ccccc1 [PT52],1.9 nM
8,Cc1ccc(Oc2ccccc2)c(O)c1 [PT53],1.9 nM
